This assay has as its target interaction between p53 and MDM2 proteins (recombinant GST-tagged MDM2 / biotinylated p53-peptide) (Homo sapiens, UniProt Q00987). Description: HTRF assay of inhibition of the p53-MDM2 interaction (In Vitro Activity Assay). It is filed as binding. The protocol:
The ability of the compounds to inhibit the interaction between p53 and MDM2 proteins was measured by an HTRF (homogeneous time-resolved fluorescence) assay in which recombinant GST-tagged MDM2 binds to a peptide that resembles the MDM2-interacting region of p53 (Lane et al.). Binding of GST-MDM2 protein and p53-peptide (biotinylated on its N-terminal end) is registered by the FRET (fluorescence resonance energy transfer) between Europium (Eu)-labeled anti-GST antibody and streptavidin-conjugated Allophycocyanin (APC). Test is performed in black flat-bottom 384-well plates (Costar) in a total volume of 40 uL containing: 90 nM biotinylate peptide, 160 ng/ml GST-MDM2, 20 nM streptavidin-APC (PerkinElmerWallac), 2 nM Eu-labeled anti-GST-antibody (PerkinElmerWallac), 0.2% bovine serum albumin (BSA), 1 mM dithiothreitol (DTT) and 20 mM […] (TBS) buffer as follows: Add 10 uL of GST-MDM2 (640 ng/ml working solution) in reaction buffer to each well. Add 10 uL dilution compounds (1:5 dilution in reaction buffer) to each well, mix by shaking, Add 20 uL biotinylated p53 peptide (180 nM working solution) in reaction buffer to each well and mix on shaker. Incubate at 37° C. for 1 h. Add 20 uL streptavidin-APC and Eu-anti-GST antibody mixture (6 nM Eu-anti-GST and 60 nM streptavidin-APC working solution) in TBS buffer with 0.2% BSA, shake at room temperature for 30 minutes and read using a TRF-capable plate reader at 665 and 615 nm (Victor 5, Perkin ElmerWallac). If not specified, the reagents were purchased from Sigma Chemical Co.

Structures can show the parent of a compound that is named as a salt.

Sequence of interaction between p53 and MDM2 proteins (recombinant GST-tagged MDM2 / biotinylated p53-peptide) (Q00987 whole entry): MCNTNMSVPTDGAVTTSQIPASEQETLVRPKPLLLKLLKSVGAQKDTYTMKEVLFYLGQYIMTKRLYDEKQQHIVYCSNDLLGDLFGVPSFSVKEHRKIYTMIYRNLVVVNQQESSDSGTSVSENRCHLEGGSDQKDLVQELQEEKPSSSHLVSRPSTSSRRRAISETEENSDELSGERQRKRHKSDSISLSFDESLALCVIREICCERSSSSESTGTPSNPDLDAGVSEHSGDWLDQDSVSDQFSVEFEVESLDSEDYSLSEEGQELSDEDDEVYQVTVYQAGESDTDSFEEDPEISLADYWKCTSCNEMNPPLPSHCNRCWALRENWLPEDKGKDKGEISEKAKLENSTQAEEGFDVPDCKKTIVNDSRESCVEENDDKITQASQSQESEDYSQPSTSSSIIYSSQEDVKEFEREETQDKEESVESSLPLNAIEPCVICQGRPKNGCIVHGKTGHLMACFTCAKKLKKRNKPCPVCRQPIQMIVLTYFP

With `CCOc1cc(C(C)(C)C)ccc1C1=N[C@@H](c2ccc(F)cc2)[C@@H](c2ccc(F)cc2)N1C(=O)N1CCN(CCS(C)(=O)=O)CC1` [Example 26, [(4S,5R)-2-(4-tert-Butyl-2-ethoxy-phenyl)-4,5-bis-(4-fluoro-phenyl)-4,5-dihydro-imidazol-1-yl]-[4-(2-methanesulfonyl-ethyl)-piperazin-1-yl]-methanone hydrochloride], the half-inhibitory concentration (IC50) is 60 nM.
For the compound `CCOc1cc(C(C)(C)C)ccc1C1=N[C@@H](c2ccc(F)cc2)[C@@H](c2ccc(F)cc2)N1C(=O)N1CCNC(=O)C1` [Example 27, 4-[(4S,5R)-2-(4-tert-Butyl-2-ethoxy-phenyl)-4,5-bis-(4-fluoro-phenyl)-4,5-dihydro-imidazole-1-carbonyl]-piperazin-2-one hydrochloride], the IC50 came out at 3100 nM.
Take `C#Cc1ccc([C@@H]2[C@H](c3ccc(C#C)cc3)N=C(c3ccc(C(C)(C)C)cc3OCC)N2C(=O)N2CCN(CCS(C)(=O)=O)CC2)cc1` [Example 35, [(4S,5R)-2-(4-tert-Butyl-2-ethoxy-phenyl)-4,5-bis-(4-ethynyl-phenyl)-4,5-dihydro-imidazol-1-yl]-[4-(2-methanesulfonyl-ethyl)-piperazin-1-yl]-methanone hydrochloride]: the IC50 turned out to be 11 nM.
With `CCOc1cc(C(C)(C)C)ccc1C1=N[C@@H](c2ccc(Cl)cc2)[C@@H](c2ccc(Cl)cc2)N1C(=O)N1CCC(N2CCCC2)CC1` [Example 74, [(4S,5R)-2-(4-tert-Butyl-2-ethoxy-phenyl)-4,5-bis-(4-chloro-phenyl)-4,5-dihydro-imidazol-1-yl]-(4-pyrrolidin-1-yl-piperidin-1-yl)-methanone hydrochloride] the figure was 24 nM.

The term IC50 denotes the concentration at which inhibition is half-maximal.

(Values after patent publication US7964724B2, “Chiral cis-imidazolines” (Hoffmann-La Roche Inc., priority 2004, dated 2011).)
